# Assay results: US7923465B2, “Cannabinoid receptor ligands, pharmaceutical compositions containing them, and process for their preparation” (priority 2005, dated 2011)
# Read-outs that look alike come from different tables or passages of the source.
# How the values were obtained:
# CB1 [1] = target: T1, CB1 (Rattus norvegicus, UniProt P20272); experiment: GTPγS binding assay, CB1 functional assay in rat cerebellar membrane (Protocol VIII); type: biochemical; set-up: 10 μg rat cerebellum membrane; from tissue; host or cells: rat cerebellum membrane, prepared in-house; details: for activation at 1 µM: 1 h, read-out: Per Se % Stimulation; for activation at 1 µM / Per Se % Stimulation: GTPγS binding over basal, rat cerebellar membrane, tested at 1 uM; for inhibition at 1 µM / % Inhibition of WIN-55212-2 induced stimulation: GTPγS binding, tested at 1 uM in presence of 1 μM WIN 55,212-2; for inhibition at 1 µM: read-out: % Inhibition of WIN-55212-2 induced stimulation
# T1 sequence (P20272 whole entry): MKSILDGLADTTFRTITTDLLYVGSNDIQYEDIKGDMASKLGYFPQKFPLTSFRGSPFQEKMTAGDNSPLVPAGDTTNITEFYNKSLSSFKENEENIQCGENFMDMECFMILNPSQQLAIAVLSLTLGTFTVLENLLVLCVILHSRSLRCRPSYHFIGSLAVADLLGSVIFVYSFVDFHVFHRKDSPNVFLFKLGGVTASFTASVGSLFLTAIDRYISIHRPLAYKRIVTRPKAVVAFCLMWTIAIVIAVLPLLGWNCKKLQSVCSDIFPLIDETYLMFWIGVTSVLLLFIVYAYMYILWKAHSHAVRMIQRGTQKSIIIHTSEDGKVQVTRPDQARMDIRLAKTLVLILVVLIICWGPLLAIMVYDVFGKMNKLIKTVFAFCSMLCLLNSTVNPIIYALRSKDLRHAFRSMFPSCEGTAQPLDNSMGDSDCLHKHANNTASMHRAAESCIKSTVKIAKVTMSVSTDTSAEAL
# Summary of the method: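 Rat cerebellar membranes (10 μg) incubated 1 h at 30 °C with 0.2 nM [35S]GTPγS, 50 μM GDP, and compound at 1 μM or 300 nM, alone or with 1 μM WIN 55,212-2, in Tris/MgCl2/EGTA/NaCl pH 7.4. Filter-bound radioactivity counted; percent stimulation calculated against basal specific binding (nonspecific defined by 10 μM GTPγS).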
# hCB2 [2] = target: T2, hCB2 (Homo sapiens, UniProt P34972); experiment: In vitro binding assay using hCB2-CHO membranes, [3H]-CP-55,940 displacement (Protocol IV); set-up: expressed in transfected cells; host or cells: CHO (hCB2-CHO, generated in-house); details: for inhibition at 0.3 µM: 1 h, read-out: % Displacement Protocol IV; for % Displacement Protocol IV: hCB2-CHO membranes, [3H]-CP-55,940 displacement
# T2 sequence (P34972 whole entry): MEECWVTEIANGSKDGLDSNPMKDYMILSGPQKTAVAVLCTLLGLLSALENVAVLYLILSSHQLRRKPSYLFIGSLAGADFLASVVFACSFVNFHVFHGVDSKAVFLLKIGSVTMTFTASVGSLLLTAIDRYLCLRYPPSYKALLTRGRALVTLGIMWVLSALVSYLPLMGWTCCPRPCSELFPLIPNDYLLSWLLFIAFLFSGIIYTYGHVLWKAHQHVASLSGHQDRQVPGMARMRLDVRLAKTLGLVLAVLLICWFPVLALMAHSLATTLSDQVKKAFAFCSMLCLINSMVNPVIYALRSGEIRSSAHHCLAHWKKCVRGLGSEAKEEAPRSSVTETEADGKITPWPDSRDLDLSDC
# Summary of the method: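 Compounds were tested at a single 300 nM final concentration for displacing 0.75 nM [3H]-CP-55,940 from hCB2-CHO membranes (1 h, 30 °C, 50 mM Tris pH 7.4, 5 mM MgCl2, 1 mM EDTA, 0.1% BSA). Filter-bound radioactivity was counted, with 0.5 μM unlabelled CP-55,940 for nonspecific binding; results are % displacement.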
# hCB2 [3] = target: T2, hCB2; experiment: Agonism of CB2 receptors expressed in CHO cells, forskolin cAMP assay (Protocol IX.2); type: cell-based; set-up: expressed in transfected cells; host or cells: CHO (h-CB2/CHO, G418-selected); details: for IC50: h-CB2/CHO cells, cAMP, read-out: hCB2 Agonism IC50
# Description: (§1) IX. Assay for Determining Agonist and Antagonist Activity to CB1 and CB2 Receptors
# 2. Agonism of CB1/CB2 Receptors Expressed in CHO Cells
# h-CB1/CHO or h-CB2/CHO cells were grown in HAM's F12 DMEM medium (Sigma) with 10% FBS (Hyclone), 1% penicillin-streptomycin solution and 400 μg/ml of G418 (Sigma). 5000 cells were seeded per well in a 96 well plate and incubated for 24 hours at 37° C. in 5% CO2. On the day of assay, cells were washed with warm Krebs Buffer containing 0.1% fatty acid free (FAF) BSA (Sigma) and re-suspended in the same buffer containing 1 mM IBMX. Test compound or CP 55,940 as a reference compound (30 nM final concentration for CB1 testing and 10 μM of the same for CB2 testing) diluted in FFB+IBMX+Krebs buffer was added to the cells followed by forskolin addition (10 uM final concentration) and incubated for 30 minutes at room temperature. At the end of incubation, cells were lysed using lysis reagent from the cAMP estimation kit and cAMP was quantitated by chemiluminescence method described in the manufacturer's instructions (DiscoveRX). EC50 values were calculated from dose response curves by nonlinear regression analysis using PRISM software.
# CB1 [4] = target: T1, CB1; experiment: Rat CB1 receptor binding using brain membrane, [3H]SR141716A displacement (Protocol I); set-up: CB1 receptor present in a rat brain membrane preparation; from tissue; host or cells: rat brain membrane; inhibition: dose or concentration left out as unconfirmed; details: for inhibition: 1 h
# hCB1 [5] = target: T3, hCB1 (Homo sapiens, UniProt P21554); experiment: In vitro binding assay using hCB1-CHO membranes, [3H]-CP-55,940 displacement (Protocol II); set-up: expressed in transfected cells; host or cells: CHO (hCB1-CHO, generated in-house)
# T3 sequence (P21554 whole entry): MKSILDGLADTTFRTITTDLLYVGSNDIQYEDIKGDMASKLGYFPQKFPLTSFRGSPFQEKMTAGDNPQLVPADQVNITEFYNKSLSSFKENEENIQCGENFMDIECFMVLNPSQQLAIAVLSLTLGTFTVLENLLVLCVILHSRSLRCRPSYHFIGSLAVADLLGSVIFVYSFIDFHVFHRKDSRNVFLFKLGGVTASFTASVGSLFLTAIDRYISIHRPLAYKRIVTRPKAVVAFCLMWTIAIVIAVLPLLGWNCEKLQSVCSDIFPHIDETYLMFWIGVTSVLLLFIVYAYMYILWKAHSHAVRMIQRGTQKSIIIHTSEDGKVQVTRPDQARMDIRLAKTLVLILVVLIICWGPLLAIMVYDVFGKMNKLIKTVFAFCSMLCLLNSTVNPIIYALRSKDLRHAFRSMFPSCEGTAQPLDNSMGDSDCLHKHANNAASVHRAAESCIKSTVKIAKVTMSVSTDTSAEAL
# Summary of the method: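 Incubated 1 h at 37° C, stopped by rapid vacuum filtration on PEI-precoated GF/B filters, bound radioactivity counted by liquid scintillation.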
# hCB1 [6] = target: T3, hCB1; experiment: Antagonism of CB1 receptors expressed in CHO cells, cAMP assay against CP 55,940 (Protocol IX.1); type: cell-based; set-up: expressed in transfected cells; host or cells: CHO (h-CB1/CHO, G418-selected); details: h-CB1/CHO cells, cAMP, vs 30 nM CP 55,940; for inhibition at 10 µM: read-out: hCB1 Antagonism
# Description: as §1
# (§2) 1. Antagonism of CB1/CB2 Receptors Expressed in CHO Cells.
# h-CB1/CHO or h-CB2/CHO cells were grown in HAM's F12 DMEM medium (Sigma) with 10% FBS (Hyclone), 1% penicillin-streptomycin solution and 400 μg/ml of G418 (Sigma). 5000 cells were seeded per well in a 96 well plate and incubated for 24 hours at 37° C. in 5% CO2. On the day of assay, cells were washed with warm Krebs buffer containing 0.1% fatty acid free (FAF) BSA (Sigma) and re-suspended in the same buffer containing 1 mM IBMX. […] At the end of incubation, cells were lysed using lysis reagent from the cAMP estimation kit and cAMP was quantitated by the chemiluminescence method described in the manufacturer's instructions (DiscoveRX). EC50 values were calculated from dose response curves by nonlinear regression analysis using PRISM software.
# hCB2 [7] = target: T2, hCB2; experiment: Antagonism of CB2 receptors expressed in CHO cells, cAMP assay against CP 55,940 (Protocol IX.1); type: cell-based; set-up: expressed in transfected cells; host or cells: CHO (h-CB2/CHO, G418-selected); details: CHO, h-CB2/CHO cells, vs 10 nM CP 55,940
# Description: as §1, §2
# h-CB1/CHO or h-CB2/CHO cells were grown in HAM's F12 DMEM medium (Sigma) with 10% FBS (Hyclone), 1% penicillin-streptomycin solution and 400 μg/ml of G418 (Sigma). 5000 cells were seeded per well in a 96 well plate and incubated for 24 hours at 37° C. in 5% CO2. On the day of assay, cells were washed with warm Krebs buffer containing 0.1% fatty acid free (FAF) BSA (Sigma) and re-suspended in the same buffer containing 1 mM IBMX. Test antagonist or reference compound (AM 251 (1-(2,4-dichlorophenyl)-5-(4-iodophenyl)-4-methyl-N-(1-piperidyl)pyrazole-3-carboxamide) for CB1 and SR144528 for CB2) diluted in FAFBSA+IBMX+Krebs buffer was added to the cells and incubated for 10 minutes at room temperature. CP 55,940 (30 nM final concentration for CB1 testing and 10 nM of the same for CB2 testing) was added to cells followed by forskolin (10 μM final concentration) and incubated for 30 minutes at room temperature. At the end of incubation, cells were lysed using lysis reagent from the cAMP estimation kit and cAMP was quantitated by the chemiluminescence method described in the manufacturer's instructions (DiscoveRX). EC50 values were calculated from dose response curves by nonlinear regression analysis using PRISM software.
# [8] = read-out: % Displacement Protocol I, rat brain membrane, [3H]SR141716A displacement
# [9] = rat brain membrane, [3H]SR141716A displacement, read-out: % Displacement Protocol I
smiles,measurement,setting,value
"O=C(NC1CCCCC1)c1nn(-c2ccc(Cl)cc2)c2c1C1CC3CC(C1)CC2C3 [Example 106, N(7)-Cyclohexyl-5-(4-chlorophenyl)-5,6-diazatetracyclo[7.3.1.1^3,11.0^4,8]tetradeca-4(8),6-diene-7-carboxamide]",activation at 1 µM,CB1 [1],-10%
same,inhibition at 1 µM,CB1 [1],65.3%
same,melting point,,162 °C
same,inhibition at 0.3 µM,hCB2 [2],75.1%
same,hCB2 Agonism,hCB2 [3]; concentration not given,0%
same,inhibition,CB1 [4]; [8],78.6%
"O=C(NC12CC3CC(CC(C3)C1)C2)c1nn(-c2ccc(Cl)cc2)c2c1C1CC3CC(C1)CC2C3 [Example 109, N(7)-(Adamantan-1-yl)-5-(4-chlorophenyl)-5,6-diazatetracyclo[7.3.1.1^3,11.0^4,8]tetradeca-4(8)-6-diene-7-carboxamide]",% Displacement Protocol II,hCB1 [5],8.36%
same,hCB1 Antagonism,hCB1 [6]; at 10 uM,61.64% at
same,% Displacement Protocol IV,hCB2 [2],63.05%
"Cl.O=C(NNc1ccccc1)c1nn(-c2ccc(Cl)cc2)c2c1C1CC3CC(C1)CC2C3 [Example 122, N(7)-(N′-phenylamino)-5-(4-chlorophenyl)-5,6-diazatetracyclo[7.3.1.1^3,11.0^4,8]tetradeca-4(8),6-diene-7-carboxamide hydrochloride]",Per Se % Stimulation,CB1 [1],1.2%
same,% Inhibition of WIN-55212-2 induced stimulation,CB1 [1],59.3%
same,inhibition at 10 µM,hCB1 [6]; at 10 uM,40.7%
same,inhibition,CB1 [4]; [8],66.4%
"O=C(NN1CCCCC1)c1nn(-c2ccccc2Cl)c2c1C1CC3CC(C1)CC2C3 [Example 184, N(7)-piperidino-5-(2′-chlorophenyl)-5,6-diazatetracyclo[7.3.1.1^3,11.0^4,8]tetradeca-4(8)-6-diene-7-carboxamide]",Per Se % Stimulation,CB1 [1],9.5%
same,% Inhibition of WIN-55212-2 induced stimulation,CB1 [1],75.9%
same,% Displacement Protocol II,hCB1 [5],3.24%
same,% Displacement Protocol IV,hCB2 [2],8.76%
same,% Displacement Protocol I,"CB1 [4]; rat brain membrane, [3H]SR141716A displacement",41%
"O=C(NC1CCCC1)c1nn(-c2ccc(Cl)cc2)c2c1C1CCC2C1 (centres unmarked) [Example 212, N(3)-Cyclopentyl-1-(4-chlorophenyl)-4,5,6,7-tetrahydro-1H-4,7-methano-indazole-3-carboxamide]",activation at 1 µM,CB1 [1],-13.8%
same,inhibition at 1 µM,CB1 [1],97.4%
same,melting point,,176 to 178 °C
same,inhibition at 10 µM,hCB1 [6]; at 10 uM,39.1%
same,inhibition,CB1 [4]; [8],68.4%
"CC(C)(C)c1ccc(NC(=O)c2nn(-c3ccc(Cl)cc3)c3c2C2CCC3C2)cc1 (centres unmarked) [Example 219, N(3)-(4-tert-Butylphenyl)-1-(4-chlorophenyl)-4,5,6,7-tetrahydro-1H-4,7-methano-indazole-3-carboxamide]",melting point,,76 to 78 °C
same,inhibition at 10 µM,hCB1 [6]; at 10 uM,33.4%
same,inhibition,CB1 [4]; [9],33.7%
"O=C(NCc1ccc(F)cc1)c1nn(-c2ccc(Cl)cc2)c2c1C1CCC2C1 (centres unmarked) [Example 226, N(3)-(4-Fluorobenzyl)-1-(4-chlorophenyl)-4,5,6,7-tetrahydro-1H-4,7-methano-indazole-3-carboxamide]",melting point,,104 to 107 °C
same,inhibition at 10 µM,hCB1 [6]; at 10 uM,71%
same,inhibition,CB1 [4]; [9],38.4%
"O=C(NNc1ccc(F)cc1F)c1nn(-c2ccc(Cl)cc2)c2c1C1CCC2C1 (centres unmarked) [Example 235, N(3)-[(2,4-Difluorophenyl)amino]-1-(4-chlorophenyl)-4,5,6,7-tetrahydro-1H-4,7-methano-indazole-3-carboxamide]",melting point,,118 to 120 °C
same,inhibition at 10 µM,hCB1 [6]; at 10 uM,59.9%
same,inhibition,CB1 [4]; [9],46.8%
"O=C(NN1CCCCC1)c1nn(-c2ccc(Cl)cc2Cl)c2c1C1CCC2C1 (centres unmarked) [Example 268, N(5)-piperidino-3-(2′,4′-dichlorophenyl)-3,4-diazatricyclo[5.2.1.0^2,6]deca-2(6),4-diene-5-carboxamide]",activation at 1 µM,CB1 [1],29.1%
same,inhibition at 1 µM,CB1 [1],55.3%
same,inhibition at 1 µM,hCB1 [6]; at 1 uM,50.9%
same,inhibition,CB1 [4]; [9],41%
"CCCCCNC(=O)c1nn(-c2ccc(F)cc2F)c2c1C1CCC2C1 (centres unmarked) [Example 306, N5-n-Pentyl-3-(2,4-difluorophenyl)-3,4-diazatricyclo[5.2.1.0^2,6]deca-2(6),4-diene-5-carboxamide]",melting point,,75 to 78 °C
same,inhibition at 0.3 µM,hCB2 [2],62.9%
same,IC50,hCB2 [3],11.9 nM
same,inhibition at 10 µM,hCB2 [7],14.4%
"O=C(NCc1ccc(Cl)cc1Cl)c1nn(-c2ccc(F)cc2F)c2c1C1CCC2C1 (centres unmarked) [Example 307, N5-(2,4-Dichlorobenzyl)-3-(2,4-difluorophenyl)-3,4-diazatricyclo[5.2.1.0^2,6]deca-2(6),4-diene-5-carboxamide]",melting point,,105 to 108 °C
same,inhibition at 0.3 µM,hCB2 [2],70.3%
same,IC50,hCB2 [3],0.81 nM
same,inhibition at 10 µM,hCB2 [7],21.6%
"CC(C)(C)NC(=O)c1nn(-c2ccc(F)cc2F)c2c1C1CCC2(C)C1(C)C (centres unmarked) [Example 408, N(3)-tert-Butyl-1-(2,4-difluorophenyl)-7,8,8-trim ethyl-4,5,6,7-tetrahydro-1H-methano-indazole-3-carboxamide]",% Displacement Protocol II,hCB1 [5],24.93%
same,% Displacement Protocol IV,hCB2 [2],61.92%
same,IC50,hCB2 [3],16.1 nM
